Source: patent US10104891B2 (priority 2014, dated 2018)

Legend:
Assay type in all cases: in vivo
Phytophthora infestans = test: whole plant or invertebrate; conditions: for control value (Test 1): tomato late blight, control value vs untreated section
[1] = test system: Pseudoperonospora cubensis; test: Test 2: control effect against cucumber downy mildew; conditions: control value vs untreated section
Description: (§1) A 10% wettable powder created according to the Pharmaceutical Formulation Example 1 was diluted with a Tween20 solution prepared to a concentration of 1/5000, then the compound of formula [1] was prepared to a concentration of 4 ppm. Further, the compound of formula [1] in Test 4 was adjusted to a concentration of 1,000 ppm.
<Test 2 Test of Control Effect Against Cucumber Downy Mildew>
(§2) Test suspension was applied to cucumber at the 2 leaf stage (species: Sagami hanjiro) in an amount of 20 ml per seedling. One day after application, zoospore suspension of Pseudoperonospora cubensis adjusted to a concentration of 1.0×10^4 units/ml was misted/inoculated, and the seedlings were incubated in a moist chamber adjusted to 22° C. for 16 hr. Then, the onset of the disease was induced in the chamber, and the lesion area rate on the leaves 5 days after inoculation was investigated to compute the control value using the formula below. control value={1−onset area rate of the leaves that were applied the test agent/onset area rate of untreated leaves}×100 Computational formula of the control value: […]

Plasmopara viticola = test: Test 3: control effect against grape downy mildew; conditions: control value vs untreated section
Description: as §1
<Test 3 Test of Control Effect Against Grape Downy Mildew>
as §2, with “grape seedling” for “cucumber at the 2 leaf stage”, “Neomuscat)” for “Sagami hanjiro)”, “Plasmopara viticola” for “Pseudoperonospora cubensis”

SMILES	control value (Test 1) (Phytophthora infestans)	control value (Test 2) [1]	control value (Test 3) (Plasmopara viticola)	pest or weed control at 4 µg/mL (Phytophthora infestans; Phytophthora infestans, in Solanum lycopersicum, 96 h, read-out: control value (Test 1)) [%]	pest or weed control at 4 µg/mL ([1]; Pseudoperonospora cubensis, 120 h) [%]	pest or weed control at 4 µg/mL (Plasmopara viticola; Plasmopara viticola, 120 h) [%]
CS(=O)(=O)Oc1ccc(Br)c2c1COC(c1csc(C3CCN(C(=O)Cn4nc(C(F)F)cc4C(F)F)CC3)n1)OC2 (stereo not drawn) [Compound 1-125]	100	100	100	–	–	–
O=C(Cn1nc(C(F)(F)F)cc1C(F)(F)F)N1CCC(c2nc(C3OCc4cccc(F)c4CO3)cs2)CC1 (stereo not drawn) [Compound 1-41]	100	100	100	–	–	–
Cc1ccc(C)c(CC(=O)N2CCC(c3nc(C4OCc5cccc(OC(F)F)c5CO4)cs3)CC2)c1 (stereo not drawn) [Compound 2-47]	100	100	100	–	–	–
O=C(Cn1nc(C(F)F)cc1C(F)F)N1CCC(c2nc(C3OCc4ccc(C(F)(F)F)cc4CO3)cs2)CC1 (stereo not drawn) [Compound 1-81]	100	100	100	–	–	–
Cc1cc(C(F)(F)F)nn1CC(=O)N1CCC(c2nc(C3OCc4c(Cl)ccc(OS(C)(=O)=O)c4CO3)cs2)CC1 (stereo not drawn) [Compound 1-65]	100	100	100	–	–	–
O=C(Cn1nc(C(F)F)cc1C(F)F)N1CCC(c2nc(C3OCc4cccc([N+](=O)[O-])c4CO3)cs2)CC1 (stereo not drawn) [Compound 1-126]	100	100	100	–	–	–
CS(=O)(=O)Oc1ccc([N+](=O)[O-])c2c1COC(c1csc(C3CCN(C(=O)Cn4nc(C(F)F)cc4C(F)F)CC3)n1)OC2 (stereo not drawn) [Compound 1-124]	100	100	100	–	–	–
CON=Cc1cccc2c1COC(c1csc(C3CCN(C(=O)Cn4nc(C(F)(F)F)cc4C)CC3)n1)OC2 (stereo not drawn) [Compound 1-63]	100	100	100	–	–	–
O=C(Cn1nc(C(F)(F)F)cc1C(F)(F)F)N1CCC(c2nc(C3OCc4cccc(OC(F)F)c4CO3)cs2)CC1 (stereo not drawn) [Compound 1-137]	100	100	100	–	–	–
CCS(=O)(=O)Oc1ccc2c(c1)COC(c1csc(C3CCN(C(=O)Cn4nc(C(F)(F)F)cc4C)CC3)n1)OC2 (stereo not drawn) [Compound 1-29]	100	90	100	–	–	–
Cc1cc(C(F)(F)F)nn1CC(=O)N1CCC(c2nc(C3OCc4c(I)ccc(OS(C)(=O)=O)c4CO3)cs2)CC1 (stereo not drawn) [Compound 1-101]	100	100	100	–	–	–
O=C(Cn1nc(C(F)F)cc1C(F)F)N1CCC(c2nc(C3OCc4cc5c(cc4CO3)CCC5)cs2)CC1 [Compound 1-61, 4-[4-(1,5,7,8,9-pentahydro-3H-2,4-indenodioxepin-3-yl)-2-thiazolyl]-1-[2-[3,5-bis(difluoromethyl)-1H-pyrazole-1-yl]acetyl]piperidine]	100	100	100	–	–	–
O=C(Cn1nc(C(F)(F)F)cc1C(F)(F)F)N1CCC(c2nc(C3OCc4cccc(Br)c4CO3)cs2)CC1 (stereo not drawn) [Compound 1-111]	100	100	100	–	–	–
CS(=O)(=O)Oc1cccc2c1COC(c1csc(N3CCN(C(=O)Cn4nc(C(F)F)cc4C(F)F)CC3)n1)OC2 (stereo not drawn) [Compound 1-151]	100	100	100	–	–	–
COc1ccc([N+](=O)[O-])c2c1COC(c1csc(C3CCN(C(=O)Cc4cc(C)ccc4C)CC3)n1)OC2 (stereo not drawn) [Compound 2-9]	100	100	100	–	–	–
Cc1cccc2c1COC(c1csc(C3CCN(C(=O)Cn4nc(C(F)(F)F)cc4C)CC3)n1)OC2 (stereo not drawn) [Compound 1-14]	100	100	100	–	–	–
Cc1cc(C(F)(F)F)nn1CC(=O)N1CCC(c2nc(C3(C)OCc4c(F)ccc(OS(C)(=O)=O)c4CO3)cs2)CC1 (stereo not drawn) [Compound 1-154]	90	100	100	–	–	–
COC(=O)Oc1cccc2c1COC(c1csc(C3CCN(C(=O)Cn4nc(C(F)(F)F)cc4C)CC3)n1)OC2 (stereo not drawn) [Compound 1-37]	100	100	100	–	–	–

SMILES	control value (Test 1) (Phytophthora infestans)	control value (Test 2) [1]	control value (Test 3) (Plasmopara viticola)	pest or weed control at 4 µg/mL (Phytophthora infestans; Phytophthora infestans, in Solanum lycopersicum, 96 h, read-out: control value (Test 1)) [%]	pest or weed control at 4 µg/mL ([1]; Pseudoperonospora cubensis, 120 h) [%]	pest or weed control at 4 µg/mL (Plasmopara viticola; Plasmopara viticola, 120 h) [%]
Cc1ccc(C)c(CC(=O)N2CCC(c3nc(C4OCc5c(Cl)ccc(OS(C)(=O)=O)c5CO4)cs3)CC2)c1 (stereo not drawn) [Compound 2-38]	100	100	100	–	–	–
Cc1cc(C(F)(F)F)nn1CC(=O)N1CCC(c2nc(C3OCc4cc(Cl)c(Cl)cc4CO3)cs2)CC1 [Compound 1-5]	100	100	100	–	–	–
CS(=O)(=O)Oc1ccc(F)c2c1COC(c1csc(C3CCN(C(=O)CON=CC(F)(F)F)CC3)n1)OC2 (stereo not drawn) [Compound 3-3]	100	100	100	–	–	–
COc1cccc2c1COC(c1csc(C3CCN(C(=O)Cc4cc(C)ccc4C)CC3)n1)OC2 (stereo not drawn) [Compound 2-50]	100	100	100	–	–	–
Cc1cc(C(F)(F)F)nn1C(C)C(=O)N1CCC(c2nc(C3OCc4c(F)ccc(OS(C)(=O)=O)c4CO3)cs2)CC1 (stereo not drawn) [Compound 1-156]	100	100	100	–	–	–
COc1ccc(F)c2c1COC(c1csc(C3CCN(C(=O)Cn4nc(C(F)(F)F)cc4C(F)(F)F)CC3)n1)OC2 (stereo not drawn) [Compound 1-142]	100	100	100	–	–	–
COc1ccc([N+](=O)[O-])c2c1COC(c1csc(C3CCN(C(=O)Cn4nc(C(F)F)cc4C(F)F)CC3)n1)OC2 (stereo not drawn) [Compound 1-74]	100	100	100	–	–	–
CS(=O)(=O)Oc1ccc2c(c1)COC(c1csc(C3CCN(C(=O)Cn4nc(C(F)(F)F)cc4C(F)(F)F)CC3)n1)OC2 (stereo not drawn) [Compound 1-139]	100	100	100	–	–	–
CC(C)(C)c1ccc2c(c1)COC(c1csc(C3CCN(C(=O)Cn4nc(C(F)(F)F)cc4C(F)(F)F)CC3)n1)OC2 (stereo not drawn) [Compound 1-92]	100	90	90	–	–	–
Cc1cc(C(F)(F)F)nn1CC(=O)N1CCC(c2nc(C3OCc4cccc(OS(=O)(=O)C(C)C)c4CO3)cs2)CC1 (stereo not drawn) [Compound 1-28]	100	100	100	–	–	–
Cc1ccc(C)c(NC(=O)N2CCC(c3nc(C4OCc5c(F)ccc(F)c5CO4)cs3)CC2)c1 [Compound 2-15]	100	100	100	–	–	–
CC(C)=NOCC(=O)N1CCC(c2nc(C3OCc4cccc(OS(C)(=O)=O)c4CO3)cs2)CC1 (stereo not drawn) [Compound 3-1, 4-[4-(6-methylsulfonyloxy-1,5-dihydro-3H-2,4-benzodioxepin-3-yl)-2-thiazolyl]-1-[2-[(propane-2-ylideneamino)oxy]acetyl]piperidine]	–	–	–	100	100	100
Cc1cc(C(F)(F)F)nn1CC(=O)N1CCC(c2nc(C3OCc4cccc(CO)c4CO3)cs2)CC1 (stereo not drawn) [Compound 1-52]	100	100	100	–	–	–
Cc1ccc(C)c(CC(=O)N2CCN(c3nc(C4OCc5cccc(OS(C)(=O)=O)c5CO4)cs3)CC2)c1 (stereo not drawn) [Compound 2-54]	90	90	100	–	–	–
O=C(Cn1nc(C(F)(F)F)cc1C(F)(F)F)N1CCC(c2nc(C3OCc4cccc([N+](=O)[O-])c4CO3)cs2)CC1 (stereo not drawn) [Compound 1-114]	100	100	100	–	–	–
Cc1cc(C(F)(F)F)nn1CC(=S)N1CCC(c2nc(C3OCc4c(F)ccc(OS(C)(=O)=O)c4CO3)cs2)CC1 (stereo not drawn) [Compound 1-107]	100	100	100	–	–	–
Cc1cc(C(F)(F)F)nn1CC(=O)N1CCC(c2nc(C3OCc4c(Br)ccc(OS(C)(=O)=O)c4CO3)cs2)CC1 (stereo not drawn) [Compound 1-66]	100	100	100	–	–	–
Cc1ccc(C)c(CC(=O)N2CCC(c3nc(C4OCc5ccc(F)c(OS(C)(=O)=O)c5CO4)cs3)CC2)c1 (stereo not drawn) [Compound 2-42]	90	100	100	–	–	–
